Columns and labels:
[1] = test system: CHOP, BiP, and DR5 mRNA in HCT116 cells; assay: qPCR of UPR target transcripts (CHOP, BiP, DR5); format: cell-based, Homo sapiens
Procedure: Cells were grown in 6-well plates and harvested with 0.5 ml of TRIzol reagent (Life Technologies) per manufacturer’s protocol to extract RNA. For cDNA synthesis, 500 ng of total RNA was reverse transcribed with 2 μl of the SuperScript VILO master mix (Life Technologies # 11755050) in a total reaction volume of 10 μl following the manufacturer’s protocol for reaction temperature and duration. The reverse transcription product was diluted to 200 μl with 10 mM Tris-HCl pH 8.2 and used at 1:100 dilution for subsequent RT-PCR reactions.
PCR samples were prepared as described by manufacturer’s protocols from iQ SYBR Green Supermix (BioRad #17088800).
For each experiment, qRT-PCR reactions were set up in triplicate and run using a CFX96 Real Time System (Bio-Rad). Quantitation cycles were determined with CFX Manager 3.0 software (Bio-Rad) and then normalized to GAPDH as an internal control.

GFP (340+341) = assay: qPCR of GFP transcript (expression of GFP-tagged construct); format: cell-based; details: Rep 2; for avg. fold induction GFP (340+341) / fold induction GFP (340+341): relative to empty traffo
[2] = Compiled Reps INS RHO, average of 6 reps

## INS-GFP: GFP-tagged proinsulin expressed from plasmid
[1]; 24 hr, Rep 2, replicate 3
  2^-(deltaCq) DR5 total: 0.04058
  Cq CHOP: 23.8955
  Cq DR5 total: 24.3278
  Cq(sample) - avg Cq(GAPDH), CHOP: 4.191
  Cq(sample) - avg Cq(GAPDH), DR5 total: 4.623
[1]; Compiled Reps INS RHO, average of 3 reps
  BiP avg fold change relative to empty: 1.818
[1]; [2]
  CHOP avg fold change relative to empty: 4.114
  DR5 avg fold change relative to empty: 1.533
  GAPDH avg fold change relative to empty: 1.006
  GFP construct avg fold change relative to empty: 92.5691
[1]; Compiled Reps INS RHO, rep 1
  BiP fold change relative to empty: 1.621
  CHOP fold change relative to empty: 3.15
  DR5 fold change relative to empty: 1.705
  GAPDH fold change relative to empty: 0.8468
  GFP construct fold change relative to empty: 79.1961
[1]; Compiled Reps INS RHO, rep 2
  BiP fold change relative to empty: 1.965
  CHOP fold change relative to empty: 3.503
  DR5 fold change relative to empty: 1.533
  GAPDH fold change relative to empty: 1.093
  GFP construct fold change relative to empty: 73.666
[1]; Compiled Reps INS RHO, rep 3
  BiP fold change relative to empty: 1.867
  CHOP fold change relative to empty: 2.685
  DR5 fold change relative to empty: 1.358
  GAPDH fold change relative to empty: 1.081
  GFP construct fold change relative to empty: 131.33
[1]; Compiled Reps INS RHO, rep 4
  CHOP fold change relative to empty: 6.073
  DR5 fold change relative to empty: 1.494
  GAPDH fold change relative to empty: 0.8281
  GFP construct fold change relative to empty: 82.5431
[1]; Compiled Reps INS RHO, rep 5
  CHOP fold change relative to empty: 4.514
  DR5 fold change relative to empty: 1.718
  GAPDH fold change relative to empty: 1.042
  GFP construct fold change relative to empty: 92.9155
[1]; Compiled Reps INS RHO, rep 6
  CHOP fold change relative to empty: 4.759
  DR5 fold change relative to empty: 1.392
  GAPDH fold change relative to empty: 1.149
  GFP construct fold change relative to empty: 95.7639
[1]; HCT116, transfected 24 hr
  UPR target gene transcription: upregulated BiP and CHOP mRNAs
GFP (340+341); 3 hr, mean of 3 replicates
  avg. fold induction GFP (340+341): 6059.51
GFP (340+341); 3 hr, replicate 1
  fold induction GFP (340+341): 5553.44
  2^-(deltaCq) GFP (340+341): 0.9383
  Cq GFP (340+341): 19.2537
  Cq(sample) - avg Cq(GAPDH), GFP (340+341): 0.0918
GFP (340+341); 3 hr, replicate 2
  fold induction GFP (340+341): 6428.23
  2^-(deltaCq) GFP (340+341): 1.086
  Cq GFP (340+341): 19.0426
  Cq(sample) - avg Cq(GAPDH), GFP (340+341): -0.1192
GFP (340+341); 3 hr, replicate 3
  fold induction GFP (340+341): 6196.87
  2^-(deltaCq) GFP (340+341): 1.047
  Cq GFP (340+341): 19.0955
  Cq(sample) - avg Cq(GAPDH), GFP (340+341): -0.06635
GFP (340+341); 7 hr, mean of 3 replicates
  avg. fold induction GFP (340+341): 36312.6
GFP (340+341); 7 hr, replicate 1
  fold induction GFP (340+341): 36506.4
  2^-(deltaCq) GFP (340+341): 6.168
  Cq GFP (340+341): 16.6754
  Cq(sample) - avg Cq(GAPDH), GFP (340+341): -2.625
GFP (340+341); 7 hr, replicate 2
  fold induction GFP (340+341): 31765.4
  2^-(deltaCq) GFP (340+341): 5.3673
  Cq GFP (340+341): 16.8761
  Cq(sample) - avg Cq(GAPDH), GFP (340+341): -2.4242
GFP (340+341); 7 hr, replicate 3
  fold induction GFP (340+341): 40666.1
  2^-(deltaCq) GFP (340+341): 6.871
  Cq GFP (340+341): 16.5198
  Cq(sample) - avg Cq(GAPDH), GFP (340+341): -2.781
GFP (340+341); 24 hr, mean of 3 replicates
  avg. 2^-(deltaCq) GFP (340+341): 90.4075
GFP (340+341); 24 hr, replicate 1
  2^-(deltaCq) GFP (340+341): 82.5431
  Cq GFP (340+341): 13.3376
  Cq(sample) - avg Cq(GAPDH), GFP (340+341): -6.367
GFP (340+341); 24 hr, replicate 2
  2^-(deltaCq) GFP (340+341): 92.9155
  Cq GFP (340+341): 13.1668
  Cq(sample) - avg Cq(GAPDH), GFP (340+341): -6.538
GFP (340+341); 24 hr, replicate 3
  2^-(deltaCq) GFP (340+341): 95.7639
  Cq GFP (340+341): 13.1232
  Cq(sample) - avg Cq(GAPDH), GFP (340+341): -6.581
